# Experimental data as given in publication PMC8546167, “Osh6 Revisited: Control of PS Transport by the Concerted Actions of PI4P and Sac1 Phosphatase” (Frontiers in Molecular Biosciences, 2021).
# Target: T1, Osh6 (Saccharomyces cerevisiae, UniProt Q02201)
# T1 construct: recombinant in E. coli BL21 Star; N-terminal His6-GB1 tag cleaved by TEV
# T1 sequence (Q02201 1-448): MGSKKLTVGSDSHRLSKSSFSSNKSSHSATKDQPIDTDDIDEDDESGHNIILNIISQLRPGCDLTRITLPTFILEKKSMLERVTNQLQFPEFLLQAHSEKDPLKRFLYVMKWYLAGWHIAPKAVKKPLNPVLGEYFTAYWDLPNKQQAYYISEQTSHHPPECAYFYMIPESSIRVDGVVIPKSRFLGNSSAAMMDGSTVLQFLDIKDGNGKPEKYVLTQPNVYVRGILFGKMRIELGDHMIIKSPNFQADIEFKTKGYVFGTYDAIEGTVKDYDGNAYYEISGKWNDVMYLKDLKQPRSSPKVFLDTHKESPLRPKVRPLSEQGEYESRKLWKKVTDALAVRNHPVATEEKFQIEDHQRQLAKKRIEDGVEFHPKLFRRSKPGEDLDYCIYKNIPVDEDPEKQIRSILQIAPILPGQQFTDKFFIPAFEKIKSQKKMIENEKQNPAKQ
# Assay: FRET transport between LUVs, C2Lact-CFP biosensor and ATTO488-DOPE
# Type: biochemical
# Details: 100 nM Osh6; 5 mol% POPS donor LUVs to POPC acceptor LUVs
smiles,measurement,value
"CCCCCCCC/C=C\CCCCCCCC(=O)O[C@H](COC(=O)CCCCCCCCCCCCCCC)COP(=O)(O)OC[C@H](N)C(=O)O [PS, POPS]","FRET transport between LUVs, C2Lact-CFP biosensor and ATTO488-DOPE",Osh6 molecules pick up PS molecules from any membrane of high PS content
